Assay results from US9951035B2, “Selective matrix metalloproteinase inhibitors” (University of Notre Dame du Lac, priority 2014, dated 2018).
In brackets after ≈: the same amount, converted by molar mass. Several values for one entry are separate records, joined by “and”; a condition that tells them apart may be missing. Identical values can stand only once. Entries after “also recorded” stand apart in the source; their conditions may differ. Counter-ions that a name gives are not always drawn. Like-named read-outs stand apart in the source and are kept apart here.

Assays:
ADAM10 = ADAM10 (Homo sapiens (Human), UniProt O14672); experiment: Enzyme inhibition studies, ADAM10; assay type: biochemical
ADAM10, sequence (O14672 214-672): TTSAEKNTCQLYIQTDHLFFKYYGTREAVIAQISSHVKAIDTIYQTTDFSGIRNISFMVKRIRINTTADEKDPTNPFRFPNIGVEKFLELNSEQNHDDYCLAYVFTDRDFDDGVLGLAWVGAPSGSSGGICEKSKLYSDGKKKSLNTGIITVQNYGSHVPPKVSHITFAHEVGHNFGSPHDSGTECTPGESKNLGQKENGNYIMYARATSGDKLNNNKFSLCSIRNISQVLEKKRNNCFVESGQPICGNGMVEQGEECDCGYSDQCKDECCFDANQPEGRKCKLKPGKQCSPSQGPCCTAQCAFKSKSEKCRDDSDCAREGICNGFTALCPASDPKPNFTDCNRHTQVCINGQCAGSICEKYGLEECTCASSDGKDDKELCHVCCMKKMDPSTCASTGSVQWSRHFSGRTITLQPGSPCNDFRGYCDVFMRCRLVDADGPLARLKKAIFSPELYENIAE

ADAM9 = ADAM9 (Homo sapiens (Human), UniProt Q13443); experiment: Enzyme inhibition studies, ADAM9; assay type: biochemical
ADAM9, sequence (Q13443 206-697): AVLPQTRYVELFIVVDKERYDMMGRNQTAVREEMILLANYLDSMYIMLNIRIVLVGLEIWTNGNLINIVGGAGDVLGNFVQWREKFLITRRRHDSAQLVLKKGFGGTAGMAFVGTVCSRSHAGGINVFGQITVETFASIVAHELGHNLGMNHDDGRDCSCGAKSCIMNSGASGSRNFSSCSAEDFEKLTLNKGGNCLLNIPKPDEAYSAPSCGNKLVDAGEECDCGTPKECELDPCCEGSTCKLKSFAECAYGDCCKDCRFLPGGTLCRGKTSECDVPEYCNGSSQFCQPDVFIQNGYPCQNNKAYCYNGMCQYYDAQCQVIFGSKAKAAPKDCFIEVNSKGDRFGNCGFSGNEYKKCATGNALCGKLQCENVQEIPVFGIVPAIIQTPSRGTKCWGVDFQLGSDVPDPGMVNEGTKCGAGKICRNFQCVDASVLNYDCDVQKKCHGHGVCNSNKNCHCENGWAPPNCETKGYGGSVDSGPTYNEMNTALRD

[1] = Stability in buffers of the kinetic assays; assay type: physicochemical
Text: Human recombinant active MMP-2 and MMP-7, and the catalytic domains of MMP-3 and MMP-14/MT1-MMP were purchased from EMD Chemicals, Inc. (San Diego, Calif., USA); human recombinant catalytic domains of MMP-1, MMP-8, and MMP-9 were purchased from Enzo Life Sciences, Inc. (Farmingdale, N.Y., USA); human recombinant active ADAM9 and ADAM10 were purchased from R&D Systems (Minneapolis, Minn., USA). Fluorogenic substrates MOCAc-Pro-Leu-Gly-Leu-A2pr(Dnp)-Ala-Arg-NH2 (for MMP-2, MMP-7, MMP-9 and MMP-14) and MOCAc-Arg-Pro-Lys-Pro-Val-Glu-Nva-Trp-Arg-Lys(Dnp)-NH2 (for MMP-3) were purchased from Peptides International (Louisville, Ky., USA); Mca-KPLGL-Dpa-AR-NH2 (for MMP-1, MMP-8 and ADAM10) and Mca-PLAQAV-Dpa-RSSSR-NH2 (for ADAM9) were purchased from R&D Systems (Minneapolis, Minn., USA). […] Inhibitor stock solutions (10 mM) were prepared fresh in DMSO before enzyme inhibition assays. We followed the same methodology for enzyme inhibition studies as reported by Page-McCaw et al. (Nat. Rev. Mol. Cell Biol. 2007, 8, 221-233). Enzyme inhibition studies were carried out using a Cary Eclipse fluorescence spectrophotometer (Varian, Walnut Creek, Calif., USA). Compounds 4, 5, 6 and 7 were stable in the buffers that were used in the kinetic assays.

MMP-7 = MMP-7 (Homo sapiens (Human), UniProt P09237); experiment: Enzyme inhibition studies, MMP-7; assay type: biochemical
MMP-7, sequence (P09237 95-267): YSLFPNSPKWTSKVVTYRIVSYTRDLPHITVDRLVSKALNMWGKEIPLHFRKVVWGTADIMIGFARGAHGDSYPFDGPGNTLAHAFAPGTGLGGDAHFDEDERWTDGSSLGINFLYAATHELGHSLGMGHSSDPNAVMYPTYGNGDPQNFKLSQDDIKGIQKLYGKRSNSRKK

MMP-1 = MMP-1 (Homo sapiens (Human), UniProt P03956); experiment: Enzyme inhibition studies, MMP-1 catalytic domain; assay type: biochemical
MMP-1, sequence (P03956 98-276): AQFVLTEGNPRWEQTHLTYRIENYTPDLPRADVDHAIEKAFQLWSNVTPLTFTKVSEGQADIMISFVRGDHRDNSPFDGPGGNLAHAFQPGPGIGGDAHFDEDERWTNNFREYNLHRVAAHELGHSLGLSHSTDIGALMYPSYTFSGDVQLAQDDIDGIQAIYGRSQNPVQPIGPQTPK

MMP-8 = MMP-8 (Homo sapiens (Human), UniProt P22894); experiment: Enzyme inhibition studies, MMP-8 catalytic domain; assay type: biochemical
MMP-8, sequence (P22894 100-262): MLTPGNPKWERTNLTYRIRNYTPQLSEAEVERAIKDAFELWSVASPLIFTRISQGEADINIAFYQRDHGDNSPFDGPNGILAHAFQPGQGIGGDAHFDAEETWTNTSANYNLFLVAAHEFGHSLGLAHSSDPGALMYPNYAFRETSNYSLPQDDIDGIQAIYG

[2] = mouse, in vivo, iv, 5 mg/kg
Method: (§1) Mice (male CD-1, 6-7 weeks old, ˜30 g body weight, specific pathogen free) were purchased from Charles River Laboratories, Inc. (Wilmington, Mass., USA).
(§2) Samples were analyzed by ultraperformance liquid chromatography (UPLC)/(+)electrospray ionization (ESI)-multiple-reaction monitoring (MRM) with a reversed phase C18 column (Acclaim® RSLC 120 C18, 2.2 μm, 120 Å, 2.1×100 mm, Dionex, Sunnyvale, Calif., USA).
(§3) Quantification of the compounds in plasma and brain was obtained using peak-area ratios of the compounds to the internal standard, and the linear-regression parameters obtained from the calibration curves.

MMP-9 = MMP-9 (Homo sapiens (Human), UniProt P14780); experiment: Enzyme inhibition studies, MMP-9 catalytic domain; assay type: biochemical; conditions: for residence time: reciprocal of koff
MMP-9, sequence (P14780 107-444): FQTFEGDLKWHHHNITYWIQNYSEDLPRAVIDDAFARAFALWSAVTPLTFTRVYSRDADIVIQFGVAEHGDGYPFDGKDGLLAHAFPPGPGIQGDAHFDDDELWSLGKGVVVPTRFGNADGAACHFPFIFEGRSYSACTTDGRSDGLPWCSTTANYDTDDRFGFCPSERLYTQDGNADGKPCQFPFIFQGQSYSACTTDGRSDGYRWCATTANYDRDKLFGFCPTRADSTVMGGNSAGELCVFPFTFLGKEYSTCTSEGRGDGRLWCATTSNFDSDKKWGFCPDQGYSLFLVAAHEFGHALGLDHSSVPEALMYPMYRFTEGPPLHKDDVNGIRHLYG

MMP-14 = MMP-14 (Homo sapiens (Human), UniProt P50281); experiment: Enzyme inhibition studies, MMP-14 catalytic domain; assay type: biochemical
physchem = conditions: water, thermodynamic from solid
[3] = Pharmacokinetics and brain distribution after single iv dose; conditions: for crossing of the blood-brain barrier: in words
Method: as §1, §2, §3

in vivo = conditions: male, CD-1, mouse, iv, 5 mg/kg
Method: as §1, §2, §3

MMP-2 = MMP-2 (Homo sapiens (Human), UniProt P08253); experiment: Enzyme inhibition studies, MMP-2; assay type: biochemical; conditions: for Ki: slow-binding, Ki calculated from koff/kon, read-out: Ki
MMP-2, sequence (P08253 110-660): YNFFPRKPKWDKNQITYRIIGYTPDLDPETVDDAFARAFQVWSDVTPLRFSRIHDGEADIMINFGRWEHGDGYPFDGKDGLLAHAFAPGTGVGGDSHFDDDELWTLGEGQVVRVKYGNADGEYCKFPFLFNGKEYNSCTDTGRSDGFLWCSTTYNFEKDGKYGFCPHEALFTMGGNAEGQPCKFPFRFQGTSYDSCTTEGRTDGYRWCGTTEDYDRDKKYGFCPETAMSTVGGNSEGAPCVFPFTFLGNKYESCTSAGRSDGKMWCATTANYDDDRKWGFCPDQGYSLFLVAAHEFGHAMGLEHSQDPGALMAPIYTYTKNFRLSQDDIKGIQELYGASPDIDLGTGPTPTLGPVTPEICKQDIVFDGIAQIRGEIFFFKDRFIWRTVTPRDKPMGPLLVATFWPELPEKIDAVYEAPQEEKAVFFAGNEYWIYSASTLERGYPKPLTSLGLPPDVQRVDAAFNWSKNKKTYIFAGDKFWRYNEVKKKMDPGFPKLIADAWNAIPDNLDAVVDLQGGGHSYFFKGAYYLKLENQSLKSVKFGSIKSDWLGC

MMP-3 = MMP-3 (Homo sapiens (Human), UniProt P08254); experiment: Enzyme inhibition studies, MMP-3 catalytic domain; assay type: biochemical; conditions: at 100 μM
MMP-3, sequence (P08254 100-272): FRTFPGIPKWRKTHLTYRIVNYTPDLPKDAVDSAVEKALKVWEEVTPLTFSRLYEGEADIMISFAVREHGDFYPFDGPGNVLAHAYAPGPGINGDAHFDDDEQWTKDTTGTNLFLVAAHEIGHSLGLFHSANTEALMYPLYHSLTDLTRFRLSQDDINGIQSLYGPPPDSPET

[4] = catalytic domain, slow-binding, Ki from koff/kon, read-out: Ki
[5] = 2 min after 5 mg/kg single iv, mice
[6] = 5 min after 5 mg/kg single iv, mice
[7] = 10 min after 5 mg/kg single iv, mice
[8] = 30 min after 5 mg/kg single iv, mice
[9] = 60 min after 5 mg/kg single iv, mice
[10] = 90 min after 5 mg/kg single iv, mice
[11] = male, CD-1, mouse, in vivo, 5 mg/kg
[12] = plasma, 5 mg/kg single iv, mice

`O=S(=O)(CC1CS1)c1ccc(Oc2ccccc2)cc1` (stereo not shown) [Compound 1, reference compound] showed an inhibition at 20 µM (ADAM10; at 20 μM, read-out: Inhibition) of 34% and an inhibition at 20 µM (ADAM9; at 20 μM, read-out: Inhibition) of 36%.
For `NCc1nc(-c2ccc(Oc3ccc(S(=O)(=O)CC4CS4)cc3)cc2)no1` (stereo not shown) [Compound 4, (3-(4-(4-((Thiiran-2-ylmethyl)sulfonyl)phenoxy)phenyl)-1,2,4-oxadiazol-5-yl)methanamine.HCl salt], the “stability in the buffers used in the kinetic assays” value [1] was “stable”, the inhibition at 100 µM (MMP-7) was 8% and the inhibition at 100 µM (ADAM10; at 100 μM) was 1%. It also gave an inhibition at 100 µM (ADAM9; at 100 μM) of 5%, an inhibition at 100 µM (MMP-1) of 8% and an inhibition at 50 µM (MMP-8) of 24%. The AUC0-last [2] was 108 pmol·min/mg, the “AUC0-∞” value [2] was 108 pmol·min/mg and the AUCbrain/AUCplasma [2] was 0.138. For the same compound, the kon (MMP-9) was 32 ± 2.3 M⁻¹ s⁻¹, the Ki (MMP-9; [4]) was 34000 nM and the koff (MMP-9; read-out: 10^3 koff) was 1.1 ± 0.03 s⁻¹. For the same compound, the residence time (MMP-9) was 15.2 ± 0.4 min, the residence time (MMP-9; read-out: residence time) was 15.2 to 47.4 min and the kon (MMP-14) was 121 ± 11 M⁻¹ s⁻¹. For the same compound, the Ki (MMP-14; [4]) was 9400 nM, the koff (MMP-14; read-out: 10^3 koff) was 1.14 ± 0.09 s⁻¹ and the residence time (MMP-14; reciprocal of koff) was 14.6 ± 1.1 min. For the same compound, the solubility (physchem) was 610 µg/mL, the “clearance as % of hepatic blood flow” value ([3]; 5 mg/kg single iv, mice) was 19% and the Brain concentration [3, 5] was 9.76±7.24 pmol/mg tissue. For the same compound, the Plasma concentration [3, 5] was 62400 ± 61600 nM, the Brain concentration [3, 6] was 5.98 ± 2.94 pmol/mg tissue and the Plasma concentration [3, 6] was 2190 ± 90 nM. For the same compound, the Brain concentration [3, 7] was 3.27 ± 0.14 pmol/mg tissue, the Plasma concentration [3, 7] was 2140 ± 1510 nM and the Brain concentration [3, 8] was 0.249 ± 0.127 pmol/mg tissue. The Plasma concentration [3, 8] was 97 ± 90 nM and 97 ± 92 nM, the Brain concentration [3, 9] was 0.0253 ± 0.0221 pmol/mg tissue and the Plasma concentration [3, 9] was 86.3 ± 30.3 nM. For the same compound, the Brain concentration [3, 10] was 0.00548 ± 0.00476 pmol/mg tissue, the Plasma concentration [3, 10] was 71.6 ± 50 nM and the Plasma concentration ([3]; 120 min after 5 mg/kg single iv, mice) was 31.8 ± 31.1 nM. The Plasma concentration ([3]; 240 min after 5 mg/kg single iv, mice) was 14.9 ± 12.9 nM, the “crossing of the blood-brain barrier” value [3] was “cross the blood-brain barrier” and the AUC(0-inf) (in vivo) was 13.1 µM·h. It also gave an AUC(0-t) (in vivo) of 13 µM·h, a Vd (in vivo) of 0.0213 L/kg and a clearance (in vivo) of 15.8 mL/min/kg. The kon (MMP-2) was 521 ± 22 M⁻¹ s⁻¹, the koff (MMP-2; read-out: 10^3 koff) was 0.33 ± 0.027 s⁻¹ and the residence time (MMP-2; reciprocal of koff) was 50.5 ± 4.1 min. For the same compound, the Ki (MMP-2) was 630 ± 60 nM and the inhibition at 100 µM (MMP-3) was 17%.
With `CC(=O)NCc1ccc(Oc2ccc(S(=O)(=O)CC3CS3)cc2)cc1` (stereo not shown) [Compound 6, N-(4-(4-((Thiiran-2-ylmethyl)sulfonyl)phenoxy)benzyl)acetamide] the “stability in the buffers used in the kinetic assays” value [1] was “stable”, the inhibition at 100 µM (MMP-7) was 5% and the Inhibition (MMP-7; at 100 μM, listed as ND-378) was “Ki (MMP-7) 4.7% inhibition at 100 μM”. The inhibition at 100 µM (ADAM10; at 100 μM) was 8%, the Inhibition (ADAM10; at 100 μM, listed as ND-378) was “Ki (ADAM-10) 8% inhibition at 100 μM” and the inhibition at 100 µM (ADAM9; at 100 μM) was 31%. For the same compound, the Inhibition (ADAM9; at 100 μM, listed as ND-378) was “Ki (ADAM-9) 31% inhibition at 100 μM”, the inhibition at 100 µM (MMP-1) was 37% and the Inhibition (MMP-1; at 100 μM, listed as ND-378) was “Ki (MMP-1) 37% inhibition at 100 μM”. The Ki (MMP-8; Ki, catalytic domain, linear noncompetitive or linear competitive mechanism as footnoted) was 690 nM and 692 nM, the AUC0-last [2] was 66.5 pmol·min/mg and the “AUC0-∞” value [2] was 67.2 pmol·min/mg. The inhibition at 50 µM (MMP-9; at 50 μM) was 23%, the Inhibition (MMP-9; at 50 μM, listed as ND-378) was “Ki (MMP-9) 23% inhibition at 50 μM” and the inhibition at 50 µM (MMP-14; at 50 μM) was 23%. The Inhibition (MMP-14; at 50 μM, listed as ND-378) was “Ki (MMP-14) 23% inhibition at 50 μM”, the solubility (physchem) was 25 µg/mL (≈ 66.2 µM) and the “clearance as % of hepatic blood flow” value ([3]; 5 mg/kg single iv, mice) was 35%. The “time brain levels above Ki for MMP-2” value ([3]; 5 mg/kg single iv, mice) was 30 min, the “time plasma levels above Ki for MMP-2” value ([3]; 5 mg/kg single iv, mice) was 30 min and the Brain concentration [3, 5] was 5.98±1.48 pmol/mg tissue. The Plasma concentration [3, 5] was 35000 ± 7700 nM, the Brain concentration [3, 6] was 4.90 ± 4.81 pmol/mg tissue and the Brain concentration [3, 7] was 0.954 ± 0.473 pmol/mg tissue. The Brain concentration [3, 8] was 0.231 ± 0.122 pmol/mg tissue, the Brain concentration [3, 9] was 0.0544 ± 0.0539 pmol/mg tissue and the Brain concentration [3, 10] was 0.0263 ± 0.0228 pmol/mg tissue. The t1/2α ([3]; brain, 5 mg/kg single iv, mice) was 2.89 min, the t1/2β ([3]; brain, 5 mg/kg single iv, mice) was 19.1 min and the “crossing of the blood-brain barrier” value ([3]; listed as ND-378) was “cross the blood-brain barrier; also recorded: crosses the BBB”. The concentration at 2 min [3, 11] was 35000 ± 7690 nM, the concentration at 5 min [3, 11] was 20300 ± 2800 nM and the concentration at 10 min [3, 11] was 14100 ± 5000 nM. It also gave a concentration at 30 min [3, 11] of 1640 ± 480 nM, a concentration at 60 min [3, 11] of 97.9 ± 6.5 nM and a concentration at 90 min [3, 11] of 82.7 ± 26.2 nM. The concentration at 120 min [3, 11] was 29.7 ± 16.8 nM, the concentration at 240 min [3, 11] was 19.3 ± 3.7 nM and the Kp ([3]; male, CD-1, mouse, in vivo, iv, 5 mg/kg) was 0.154. The t1/2α [3, 12] was 6.31 min, the t1/2β [3, 12] was 86.6 min and the AUC(0-inf) (in vivo) was 7.28 µM·h. The AUC(0-t) (in vivo) was 7.25 µM·h, the Vd (in vivo) was 0.329 L/kg and the clearance (in vivo) was 30.3 mL/min/kg. The Ki (MMP-2) was 230 nM and 234 nM, the inhibition at 100 µM (MMP-3) was 14% and the Inhibition (MMP-3; listed as ND-378) was “Ki (MMP-3) 14% inhibition at 100 μM”.
